Values quoted from earlier work, collected in US20100330607A1, “PHOTOSWITCH-ENABLED ION CHANNEL ASSAY SYSTEM” (Photoswitch Biosciences, Inc., priority 2009, published 2010).
Like-named read-outs stand apart in the source and are kept apart here.

How the values were obtained:
[1] = read-out: Kd for Ca^2+
late INa [2] = settings: ventricular myocytes from dog hearts
late INa [3] = settings: ventricular myocytes from guinea-pig hearts
[4] = in the dark, in solution

Molecule: Cc1ccc(N(CC(=O)O)CC(=O)O)c(OCCOc2cc(-c3c4cc(Cl)c(=O)cc-4oc4cc(O)c(Cl)cc34)ccc2N(CC(=O)O)CC(=O)O)c1 [Fluo-3]
- Kd [1]: 390 nM

Molecule: COc1ccccc1OCC(O)CN1CCN(CC(=O)Nc2c(C)cccc2C)CC1 (centres unmarked) [ranolazine]
- inhibition of the late INa (late INa [2]): concentration-, voltage- and frequency-dependent inhibition
- inhibition of the late INa (late INa [3]): concentration-, voltage- and frequency-dependent inhibition

Molecule: Fluo-4
- Kd [1]: 345 nM

Molecule: Maleimide-Azobenzene-Glutamate [MAG]
- rate of thermal relaxation, from cis to trans [4]: about 18 mins
